Consider 19 molecules from patent US12686673B2 (Blueprint Medicines Corporation, priority 2020, dated 2026).

Common to all, as to assay type: cell-based
In assay [1] the target is EGFR (A767_dupASV) expressing Ba/F3 stable cell line (Homo sapiens, UniProt P00533, DUP767-769, cells depend on it). As to the kind of experiment: Cellular proliferation (Alamar Blue) assay, EGFR A767_dupASV Ba/F3. To be noted: 72 hr, read-out: A767 IC50. The procedure, abridged: (§1)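 Each stable Ba/F3 line, cultured in RPMI with 10% FBS at 15,000 cells per well, received a threefold compound series (final top 10 μM, bottom 0.0005 μM) for 72 hr at 37 degree Celsius, then Alamar Blue for 3 h.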
EGFR (A767_dupASV) expressing Ba/F3 stable cell line, sequence (P00533 with tags, fused parts or gaps DUP767-769): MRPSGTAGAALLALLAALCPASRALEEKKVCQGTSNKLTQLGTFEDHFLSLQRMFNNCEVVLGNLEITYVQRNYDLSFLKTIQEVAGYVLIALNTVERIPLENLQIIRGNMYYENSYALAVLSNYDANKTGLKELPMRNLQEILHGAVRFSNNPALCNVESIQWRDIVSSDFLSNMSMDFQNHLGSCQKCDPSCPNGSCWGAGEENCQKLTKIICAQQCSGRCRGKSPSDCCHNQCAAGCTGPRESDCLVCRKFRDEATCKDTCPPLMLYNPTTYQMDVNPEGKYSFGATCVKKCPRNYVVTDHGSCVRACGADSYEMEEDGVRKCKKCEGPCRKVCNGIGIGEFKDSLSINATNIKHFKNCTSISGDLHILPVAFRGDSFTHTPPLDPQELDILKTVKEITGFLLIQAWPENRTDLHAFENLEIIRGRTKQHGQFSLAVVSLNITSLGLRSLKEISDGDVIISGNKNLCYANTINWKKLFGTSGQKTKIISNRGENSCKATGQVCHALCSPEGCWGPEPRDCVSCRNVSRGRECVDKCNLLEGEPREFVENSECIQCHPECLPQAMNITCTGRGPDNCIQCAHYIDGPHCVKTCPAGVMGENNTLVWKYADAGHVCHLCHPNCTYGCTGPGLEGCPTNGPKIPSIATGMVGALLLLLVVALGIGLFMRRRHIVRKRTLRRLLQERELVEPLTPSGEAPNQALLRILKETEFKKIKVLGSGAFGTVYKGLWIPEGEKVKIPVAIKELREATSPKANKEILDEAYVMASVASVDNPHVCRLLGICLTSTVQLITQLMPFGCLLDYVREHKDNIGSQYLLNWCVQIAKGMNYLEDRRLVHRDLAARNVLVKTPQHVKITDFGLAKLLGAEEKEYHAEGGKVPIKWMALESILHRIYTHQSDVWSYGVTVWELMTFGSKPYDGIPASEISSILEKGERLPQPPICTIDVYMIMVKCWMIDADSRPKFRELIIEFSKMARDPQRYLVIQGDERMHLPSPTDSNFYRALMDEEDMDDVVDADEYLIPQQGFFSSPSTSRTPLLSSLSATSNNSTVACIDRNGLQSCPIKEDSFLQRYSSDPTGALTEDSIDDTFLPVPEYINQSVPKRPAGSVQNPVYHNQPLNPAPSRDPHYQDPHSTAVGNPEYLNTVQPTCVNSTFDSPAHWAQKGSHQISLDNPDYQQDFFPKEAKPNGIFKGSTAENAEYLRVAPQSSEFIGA

Assay [2] has as its target HER2 (A775_G776insYVMA) expressing Ba/F3 stable cell line (Homo sapiens, UniProt P04626, DUP772-775, cells depend on it). As to the kind of experiment: Cellular proliferation (Alamar Blue) assay, HER2 A775_G776insYVMA Ba/F3. Conditions: 72 hr, read-out: YVMA IC50. Put shortly:
as §1

Assay [3] concerns the target EGFR (H773insNPH) expressing Ba/F3 stable cell line (Homo sapiens, UniProt P00533, DUP771-773, cells depend on it). As to the kind of experiment: Cellular proliferation (Alamar Blue) assay, EGFR H773insNPH Ba/F3. To be noted: 72 hr, read-out: NPH IC50. Put shortly: as §1
In assay [4] the target is EGFR(D770_N771insSVD) expressing Ba/F3 stable cell line (Homo sapiens, UniProt P00533, DUP768-770, cells depend on it). Kind of assay: Cellular proliferation (Alamar Blue) assay, EGFR D770_N771insSVD Ba/F3. To be noted: 72 hr, read-out: D770 IC50. Put shortly: as §1
EGFR(D770_N771insSVD) expressing Ba/F3 stable cell line, sequence (P00533 with tags, fused parts or gaps DUP768-770): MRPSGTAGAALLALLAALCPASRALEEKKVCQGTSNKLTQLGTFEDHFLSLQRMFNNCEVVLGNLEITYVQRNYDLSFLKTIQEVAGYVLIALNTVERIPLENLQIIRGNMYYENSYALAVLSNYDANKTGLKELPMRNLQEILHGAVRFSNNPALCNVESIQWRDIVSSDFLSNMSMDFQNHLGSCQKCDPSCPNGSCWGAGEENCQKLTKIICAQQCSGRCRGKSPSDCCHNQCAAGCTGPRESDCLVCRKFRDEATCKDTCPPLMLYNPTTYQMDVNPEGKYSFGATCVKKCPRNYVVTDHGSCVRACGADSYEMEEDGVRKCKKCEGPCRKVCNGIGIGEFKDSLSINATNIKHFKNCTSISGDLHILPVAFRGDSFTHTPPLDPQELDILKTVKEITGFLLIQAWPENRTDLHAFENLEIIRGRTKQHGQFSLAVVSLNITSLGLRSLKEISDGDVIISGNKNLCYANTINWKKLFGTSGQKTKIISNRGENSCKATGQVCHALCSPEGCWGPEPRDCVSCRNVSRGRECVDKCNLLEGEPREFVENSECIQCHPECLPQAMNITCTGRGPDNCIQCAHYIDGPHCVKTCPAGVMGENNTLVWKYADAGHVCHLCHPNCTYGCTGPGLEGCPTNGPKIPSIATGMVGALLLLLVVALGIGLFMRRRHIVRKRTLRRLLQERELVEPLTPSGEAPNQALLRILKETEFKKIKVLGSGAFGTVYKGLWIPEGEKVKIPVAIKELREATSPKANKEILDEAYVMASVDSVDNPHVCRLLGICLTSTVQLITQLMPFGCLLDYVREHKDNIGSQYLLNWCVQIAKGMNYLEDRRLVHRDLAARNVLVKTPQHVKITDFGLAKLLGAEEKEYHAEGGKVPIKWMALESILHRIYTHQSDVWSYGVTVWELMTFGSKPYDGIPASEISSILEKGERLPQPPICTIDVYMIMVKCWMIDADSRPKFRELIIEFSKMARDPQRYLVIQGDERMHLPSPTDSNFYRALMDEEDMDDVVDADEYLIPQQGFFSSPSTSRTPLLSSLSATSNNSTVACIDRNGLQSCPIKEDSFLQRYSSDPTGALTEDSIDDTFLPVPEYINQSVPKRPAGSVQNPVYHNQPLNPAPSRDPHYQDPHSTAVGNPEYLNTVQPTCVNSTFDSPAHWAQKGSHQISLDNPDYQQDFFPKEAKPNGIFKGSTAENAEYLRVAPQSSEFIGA
Assay [5] relates to A431 cells. Kind of assay: Cellular proliferation (Alamar Blue) assay, A431. Conditions: Homo sapiens, A-431; A431 cells, Alamar Blue, 72 hr; read-out: A431 IC50.

Structures can show the parent of a compound that is named as a salt.

HER2 (A775_G776insYVMA) expressing Ba/F3 stable cell line, sequence (P04626 with tags, fused parts or gaps DUP772-775): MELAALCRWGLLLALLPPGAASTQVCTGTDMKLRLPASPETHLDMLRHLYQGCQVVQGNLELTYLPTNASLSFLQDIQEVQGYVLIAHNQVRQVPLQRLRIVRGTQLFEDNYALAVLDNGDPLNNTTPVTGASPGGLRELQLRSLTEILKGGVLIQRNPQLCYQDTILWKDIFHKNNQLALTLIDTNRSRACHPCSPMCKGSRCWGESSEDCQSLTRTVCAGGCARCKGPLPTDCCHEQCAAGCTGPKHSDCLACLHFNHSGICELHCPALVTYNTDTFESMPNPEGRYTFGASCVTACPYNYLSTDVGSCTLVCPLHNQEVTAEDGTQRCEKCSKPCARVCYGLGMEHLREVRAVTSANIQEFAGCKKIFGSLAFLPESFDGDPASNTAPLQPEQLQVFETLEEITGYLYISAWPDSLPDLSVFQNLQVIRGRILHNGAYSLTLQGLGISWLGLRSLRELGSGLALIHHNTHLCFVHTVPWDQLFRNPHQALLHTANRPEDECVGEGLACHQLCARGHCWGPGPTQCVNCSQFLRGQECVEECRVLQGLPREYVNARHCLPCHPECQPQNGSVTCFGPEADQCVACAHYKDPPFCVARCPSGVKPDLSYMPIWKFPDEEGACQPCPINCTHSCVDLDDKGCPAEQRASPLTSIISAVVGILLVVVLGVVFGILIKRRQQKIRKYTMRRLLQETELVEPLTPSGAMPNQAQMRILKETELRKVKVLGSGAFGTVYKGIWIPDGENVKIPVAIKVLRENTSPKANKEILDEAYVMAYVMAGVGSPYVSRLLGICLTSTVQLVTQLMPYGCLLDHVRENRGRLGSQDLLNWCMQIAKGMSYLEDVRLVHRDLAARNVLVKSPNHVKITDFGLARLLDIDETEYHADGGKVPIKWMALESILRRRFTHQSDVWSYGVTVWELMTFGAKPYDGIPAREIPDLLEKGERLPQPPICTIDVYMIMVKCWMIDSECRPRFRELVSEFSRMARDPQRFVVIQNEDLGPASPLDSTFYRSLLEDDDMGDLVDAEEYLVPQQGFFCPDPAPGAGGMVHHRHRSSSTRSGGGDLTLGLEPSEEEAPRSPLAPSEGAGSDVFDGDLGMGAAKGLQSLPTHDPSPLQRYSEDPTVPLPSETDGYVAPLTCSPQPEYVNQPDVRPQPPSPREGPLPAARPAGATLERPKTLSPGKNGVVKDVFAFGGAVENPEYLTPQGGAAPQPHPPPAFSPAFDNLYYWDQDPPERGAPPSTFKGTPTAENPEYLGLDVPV
EGFR (H773insNPH) expressing Ba/F3 stable cell line, sequence (P00533 with tags, fused parts or gaps DUP771-773): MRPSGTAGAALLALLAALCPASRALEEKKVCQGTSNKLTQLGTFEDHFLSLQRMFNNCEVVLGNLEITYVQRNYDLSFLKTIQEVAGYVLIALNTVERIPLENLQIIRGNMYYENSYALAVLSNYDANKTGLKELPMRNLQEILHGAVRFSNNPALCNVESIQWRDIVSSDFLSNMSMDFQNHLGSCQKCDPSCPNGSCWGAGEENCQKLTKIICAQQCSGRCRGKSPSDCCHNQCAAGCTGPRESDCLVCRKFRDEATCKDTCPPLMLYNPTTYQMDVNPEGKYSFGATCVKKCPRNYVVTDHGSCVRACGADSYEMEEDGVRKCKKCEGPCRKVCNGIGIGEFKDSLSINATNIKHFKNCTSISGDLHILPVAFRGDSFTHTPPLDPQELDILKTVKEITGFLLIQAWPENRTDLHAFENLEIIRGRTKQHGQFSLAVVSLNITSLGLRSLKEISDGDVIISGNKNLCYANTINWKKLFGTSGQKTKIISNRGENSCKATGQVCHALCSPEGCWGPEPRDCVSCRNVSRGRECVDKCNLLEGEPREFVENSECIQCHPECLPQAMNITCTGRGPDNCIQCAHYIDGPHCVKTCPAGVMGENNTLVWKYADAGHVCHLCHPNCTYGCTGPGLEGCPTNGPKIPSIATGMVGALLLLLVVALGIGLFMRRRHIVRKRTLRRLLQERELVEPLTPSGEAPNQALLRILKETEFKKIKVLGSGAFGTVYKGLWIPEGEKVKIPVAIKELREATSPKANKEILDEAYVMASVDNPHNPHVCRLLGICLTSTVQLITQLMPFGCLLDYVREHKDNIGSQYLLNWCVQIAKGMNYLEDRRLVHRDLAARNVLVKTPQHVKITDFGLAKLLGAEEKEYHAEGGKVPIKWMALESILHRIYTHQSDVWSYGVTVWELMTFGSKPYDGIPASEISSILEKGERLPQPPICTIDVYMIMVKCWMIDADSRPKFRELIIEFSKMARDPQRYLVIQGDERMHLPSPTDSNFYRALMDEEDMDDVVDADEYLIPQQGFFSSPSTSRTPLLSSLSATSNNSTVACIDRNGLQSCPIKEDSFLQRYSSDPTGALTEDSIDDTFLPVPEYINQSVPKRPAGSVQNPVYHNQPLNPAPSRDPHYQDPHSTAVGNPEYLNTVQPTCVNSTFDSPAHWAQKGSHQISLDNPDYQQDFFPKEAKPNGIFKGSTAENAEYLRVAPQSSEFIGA

As to `C=CC(=O)Nc1ccc(F)c(Nc2nc(Nc3cn(C)nc3Cl)ncc2-c2ccc(C(F)(F)F)cc2)c1` [Compound 112, N-(3-((2-((3-chloro-1-methyl-1H-pyrazol-4-yl)amino)-5-(4-(trifluoromethyl)phenyl)pyrimidin-4-yl)amino)-4-fluorophenyl)acrylamide trifluoroacetate], the GI50 in assay [1] was determined as 80 nM; in assay [2] it was 288 nM; in assay [3] it was 138 nM; in assay [4] it was 93 nM. Moreover, the IC50 in assay [5] turned out to be 88 nM.

Turning to `C=CC(=O)Nc1cccc(Nc2nc(Nc3cnn(C)c3)ncc2-c2cccc(F)c2)c1` [Compound 115, N-(3-((5-(3-fluorophenyl)-2-((1-methyl-1H-pyrazol-4-yl)amino)pyrimidin-4-yl)amino)phenyl)acrylamide trifluoroacetate], the GI50 stood at 39 nM in assay [1], 25 nM in assay [2], 30 nM in assay [3] and 16 nM in assay [4]. For the same molecule, the IC50 in assay [5] came out at 100 nM.

For `C=CC(=O)Nc1ccc(F)c(Nc2nc(Nc3cnn(C)c3)ncc2-c2cncc(N(C)C)c2)c1` [Compound 116, N-(3-((5-(5-(dimethylamino)pyridin-3-yl)-2-((1-methyl-1H-pyrazol-4-yl)amino)pyrimidin-4-yl)amino)-4-fluorophenyl)acrylamide trifluoroacetate], the GI50 in assay [1] came to 94 nM; in assay [2], 251 nM; in assay [3], 136 nM; in assay [4], 108 nM. The IC50 in assay [5] is 108 nM.

Consider `C=CC(=O)Nc1ccc(F)c(Nc2nc(Nc3cnn(C)c3)ncc2-c2ccnc(Cl)c2)c1` [Compound 117, N-(3-((5-(2-chloropyridin-4-yl)-2-((1-methyl-1H-pyrazol-4-yl)amino)pyrimidin-4-yl)amino)-4-fluorophenyl)acrylamide], for which the GI50 in assay [1] stood at 57 nM; in assay [2], 160 nM; in assay [3], 107 nM; in assay [4], 86 nM. Besides, in assay [5], the IC50 is 85 nM.

Take `C=CC(=O)Nc1ccc(F)c(Nc2nc(Nc3cn(C)nc3C)ncc2-c2ccc(C(F)(F)F)cc2)c1` [Compound 135, N-(3-((2-((1,3-dimethyl-1H-pyrazol-4-yl)amino)-5-(4-(trifluoromethyl)phenyl)pyrimidin-4-yl)amino)-4-fluorophenyl)acrylamide trifluoroacetate]: the GI50 in assay [1] is 257 nM; in assay [2], 413 nM; in assay [3], 235 nM; in assay [4], 120 nM. For the same molecule, the IC50 in assay [5] is 94 nM.

For `C=CC(=O)Nc1ccc(F)c(Nc2nc(Nc3cnn(C4COC4)c3)ncc2-c2ccc(C(F)(F)F)cc2)c1` [Compound 139, N-(4-fluoro-3-((2-((1-(oxetan-3-yl)-1H-pyrazol-4-yl)amino)-5-(4-(trifluoromethyl)phenyl)pyrimidin-4-yl)amino)phenyl)acrylamide], the GI50 in assay [1] stood at 125 nM; in assay [2] it was 690 nM; in assay [3], 148 nM; in assay [4], 116 nM. Also, the IC50 in assay [5] was over 10000 nM.

With `C=CC(=O)Nc1ccc(F)c(Nc2nc(Nc3cnn(C)c3)ncc2-c2ccc(OC(F)F)cc2)c1` [Compound 140, N-(3-((5-(4-(difluoromethoxy)phenyl)-2-((1-methyl-1H-pyrazol-4-yl)amino)pyrimidin-4-yl)amino)-4-fluorophenyl)acrylamide], the GI50 in assay [1] amounted to 34 nM; in assay [2], 269 nM; in assay [3], 58 nM; in assay [4], 32 nM. Moreover, the IC50 in assay [5] amounted to 22 nM.

`C=CC(=O)Nc1ccc(F)c(Nc2nc(Nc3cnn(C)c3)ncc2-c2cncc(OC)c2)c1` [Compound 141, N-(4-fluoro-3-((5-(5-methoxypyridin-3-yl)-2-((1-methyl-1H-pyrazol-4-yl)amino)pyrimidin-4-yl)amino)phenyl)acrylamide]: the GI50 was 100 nM in assay [1], 201 nM in assay [2], 49 nM in assay [3] and 101 nM in assay [4]. Also, the IC50 in assay [5] was found to be 141 nM.

Turning to `C=CC(=O)Nc1cccc(Nc2nc(Nc3cnn(C)c3)ncc2-c2ccc(OC(F)F)cc2)c1` [Compound 142, N-(3-((5-(4-(difluoromethoxy)phenyl)-2-((1-methyl-1H-pyrazol-4-yl)amino)pyrimidin-4-yl)amino)phenyl)acrylamide trifluoroacetate], the GI50 was 34 nM in assay [1], 50 nM in assay [2], 24 nM in assay [3] and 16 nM in assay [4]. The IC50 in assay [5] was 169 nM.

In the case of `C=CC(=O)Nc1cccc(Nc2nc(Nc3cnn(C)c3)ncc2-c2cncc(C(F)F)c2)c1` [Compound 144, N-(3-((5-(5-(difluoromethyl)pyridin-3-yl)-2-((1-methyl-1H-pyrazol-4-yl)amino)pyrimidin-4-yl)amino)phenyl)acrylamide trifluoroacetate], the GI50 in assay [1] came to 70 nM; in assay [2] it was 38 nM; in assay [3] it was 101 nM; in assay [4], 37 nM. For the same molecule, the IC50 in assay [5] turned out to be 122 nM.

Turning to `C=CC(=O)Nc1ccc(F)c(Nc2nc(Nc3cnn(C)c3)ncc2-c2cncnc2)c1` [Compound 147, N-(4-fluoro-3-((2-((1-methyl-1H-pyrazol-4-yl)amino)-[5,5′-bipyrimidin]-4-yl)amino)phenyl)acrylamide trifluoroacetate], the GI50 is 101 nM in assay [1], 100 nM in assay [2], 68 nM in assay [3] and 105 nM in assay [4]. For the same molecule, in assay [5], the IC50 amounted to 466 nM.

As for `C=CC(=O)Nc1cccc(Oc2nc(Nc3cnn(C)c3)ncc2-c2ccc(C(F)(F)F)cc2)c1` [Compound 151, N-(3-((2-((1-methyl-1H-pyrazol-4-yl)amino)-5-(4-(trifluoromethyl)phenyl)pyrimidin-4-yl)oxy)phenyl)acrylamide], the GI50 in assay [1] was found to be 129 nM; in assay [2], 354 nM; in assay [3] it was 226 nM; in assay [4], 105 nM. Besides, the IC50 in assay [5] came out at 375 nM.

As to `C=CC(=O)Nc1ccc(F)c(Oc2nc(Nc3cnn(C)c3)ncc2-c2ccc(C(F)(F)F)cc2)c1` [Compound 152, N-(4-fluoro-3-((2-((1-methyl-1H-pyrazol-4-yl)amino)-5-(4-(trifluoromethyl)phenyl)pyrimidin-4-yl)oxy)phenyl)acrylamide], the GI50 was 300 nM in assay [1], 651 nM in assay [2], 407 nM in assay [3] and 173 nM in assay [4]. The IC50 in assay [5] was 3500 nM.

As to `C=CC(=O)Nc1cccc(Oc2nc(Nc3cnn(C)c3)ncc2-c2cncc(F)c2)c1` [Compound 184, N-(3-((5-(5-fluoropyridin-3-yl)-2-((1-methyl-1H-pyrazol-4-yl)amino)pyrimidin-4-yl)oxy)phenyl)acrylamide], the GI50 is 27 nM in assay [1], 60 nM in assay [2], 222 nM in assay [3] and 37 nM in assay [4]. Besides, the IC50 in assay [5] came out at 97 nM.

For `C=CC(=O)Nc1cccc(Oc2nc(Nc3cnn(C)c3)ncc2-c2ccc(Cl)nc2)c1` [Compound 185, N-(3-((5-(6-chloropyridin-3-yl)-2-((1-methyl-1H-pyrazol-4-yl)amino)pyrimidin-4-yl)oxy)phenyl)acrylamide], the GI50 in assay [1] turned out to be 37 nM; in assay [2], 113 nM; in assay [3], 97 nM; in assay [4], 40 nM. Also, the IC50 in assay [5] turned out to be 522 nM.

`C=CC(=O)Nc1cccc(Oc2nc(Nc3cnn(C)c3)ncc2-c2ccc(C)nc2)c1` [Compound 186, N-(3-((2-((1-methyl-1H-pyrazol-4-yl)amino)-5-(6-methylpyridin-3-yl)pyrimidin-4-yl)oxy)phenyl)acrylamide]: the GI50 was 90 nM in assay [1], 175 nM in assay [2], 106 nM in assay [3] and 114 nM in assay [4]. Further, the IC50 in assay [5] was 170 nM.

With `C=CC(=O)Nc1cccc(Oc2nc(Nc3cnn(C)c3)ncc2-c2ccc(C(F)F)nc2)c1` [Compound 187, N-(3-((5-(6-(difluoromethyl)pyridin-3-yl)-2-((1-methyl-1H-pyrazol-4-yl)amino)pyrimidin-4-yl)oxy)phenyl)acrylamide], the GI50 in assay [1] stood at 61 nM; in assay [2] it was 226 nM; in assay [3] it was 99 nM; in assay [4], 40 nM. Further, the IC50 in assay [5] is 281 nM.

Consider `C=CC(=O)Nc1cccc(Oc2nc(Nc3cnn(C)c3)ncc2-c2ccc(OC(F)F)nc2)c1` [Compound 188, N-(3-((5-(6-(difluoromethoxy)pyridin-3-yl)-2-((1-methyl-1H-pyrazol-4-yl)amino)pyrimidin-4-yl)oxy)phenyl)acrylamide], for which the GI50 in assay [1] amounted to 118 nM; in assay [2], 269 nM; in assay [3], 300 nM; in assay [4], 108 nM. The IC50 in assay [5] stood at 216 nM.

`C=CC(=O)Nc1cncc(Nc2nc(Nc3cnn(C)c3)ncc2-c2ccc(C(F)(F)F)cc2)c1` [Compound 195, N-(5-((2-((1-methyl-1H-pyrazol-4-yl)amino)-5-(4-(trifluoromethyl)phenyl)pyrimidin-4-yl)amino)pyridin-3-yl)acrylamide]: the GI50 in assay [1] was found to be 135 nM; in assay [2], 258 nM; in assay [3] it was 180 nM; in assay [4], 57 nM. In addition, the IC50 in assay [5] was 524 nM.
